Assay results published in PMC11200585, “Prospects for Prostate Cancer Chemotherapy: Cytotoxic Evaluation and Mechanistic Insights of Quinolinequinones with ADME/PK Profile” (Biomedicines, 2024).

Legend:
Type in all cases: cell-based, human
SF-295 = assay: NCI-60 one-dose screen (CNS cancer); conditions: 10 µM single dose, 48 h
Description: (§1) The obtained quinolinequinones were submitted to NCI, Bethesda, USA, and, as per standard protocol of NCI, all compounds were evaluated for their antiproliferative activity at single-dose assay (10 µM concentration in DMSO) on a panel of 60 cancer cell lines derived from leukemia, non-small-cell lung, colon, CNS, melanoma, ovarian, renal, prostate, and breast, as per protocol. Tested compounds were added to the microtiter culture plates followed by incubation for 48 h at 37 °C. Sulforhodamine B (SRB), a protein-binding dye, is used for endpoint determination. The percent of the growth of the treated cells was determined in comparison to the untreated control cells and the results of each tested compound were reported. Data from one-dose experiments pertain to the percentage growth at 10 μM [16, 17, 18].

SF-539 = assay: NCI-60 one-dose screen (CNS cancer); conditions: 10 µM single dose, 48 h
Description: as §1

U251 = assay: NCI-60 one-dose screen (CNS cancer); conditions: 10 µM single dose, 48 h
Description: as §1

SNB-19 = assay: NCI-60 one-dose screen (CNS cancer); conditions: 10 µM single dose, 48 h
Description: as §1

SF-268 = assay: NCI-60 one-dose screen (CNS cancer); conditions: 10 µM single dose, 48 h
Description: as §1

SNB-75 = assay: NCI-60 one-dose screen (CNS cancer); conditions: 10 µM single dose, 48 h
Description: as §1

HT29 = assay: NCI-60 one-dose screen (colon cancer); conditions: 10 µM single dose, 48 h
Description: as §1

SW-620 = assay: NCI-60 one-dose screen (colon cancer); conditions: 10 µM single dose, 48 h
Description: as §1

KM12 = assay: NCI-60 one-dose screen (colon cancer); conditions: 10 µM single dose, 48 h
Description: as §1

HCT-15 = assay: NCI-60 one-dose screen (colon cancer); conditions: 10 µM single dose, 48 h
Description: as §1

HCT-116 = assay: NCI-60 one-dose screen (colon cancer); conditions: 10 µM single dose, 48 h
Description: as §1

HCC-2998 = assay: NCI-60 one-dose screen (colon cancer); conditions: 10 µM single dose, 48 h
Description: as §1

COLO 205 = assay: NCI-60 one-dose screen (colon cancer); conditions: 10 µM single dose, 48 h
Description: as §1

OVCAR-4 = assay: NCI-60 one-dose screen (ovarian cancer); conditions: 10 µM single dose, 48 h
Description: as §1

OVCAR-3 = assay: NCI-60 one-dose screen (ovarian cancer); conditions: 10 µM single dose
Description: as §1

SK-OV-3 = assay: NCI-60 one-dose screen (ovarian cancer); conditions: 10 µM single dose, 48 h
Description: as §1

IGROV1 = assay: NCI-60 one-dose screen (ovarian cancer)
Description: as §1

NCI/ADR-RES = assay: NCI-60 one-dose screen (ovarian cancer); conditions: 10 µM single dose, 48 h
Description: as §1

OVCAR-8 = assay: NCI-60 one-dose screen (ovarian cancer); conditions: 10 µM single dose, 48 h
Description: as §1

OVCAR-5 = assay: NCI-60 one-dose screen (ovarian cancer); conditions: 10 µM single dose, 48 h
Description: as §1

UACC-62 = assay: NCI-60 one-dose screen (melanoma); conditions: 10 µM single dose, 48 h
Description: as §1

MDA-MB-435 = assay: NCI-60 one-dose screen (melanoma); conditions: 10 µM single dose, 48 h
Description: as §1

LOX IMVI = assay: NCI-60 one-dose screen (melanoma); conditions: 10 µM single dose, 48 h
Description: as §1

UACC-257 = assay: NCI-60 one-dose screen (melanoma); conditions: 10 µM single dose, 48 h
Description: as §1

SK-MEL-28 = assay: NCI-60 one-dose screen (melanoma); conditions: 10 µM single dose, 48 h
Description: as §1

MALME-3M = assay: NCI-60 one-dose screen (melanoma); conditions: 10 µM single dose, 48 h
Description: as §1

SK-MEL-5 = assay: NCI-60 one-dose screen (melanoma); conditions: 10 µM single dose, 48 h
Description: as §1

SK-MEL-2 = assay: NCI-60 one-dose screen (melanoma); conditions: 10 µM single dose, 48 h
Description: as §1

EKVX = assay: NCI-60 one-dose screen (non-small cell lung cancer); conditions: 10 µM single dose, 48 h
Description: as §1

NCI-H460 = assay: as above; conditions: 10 µM single dose, 48 h
Description: as §1

HOP-92 = assay: as above; conditions: 10 µM single dose, 48 h
Description: as §1

NCI-H322M = assay: as above; conditions: 10 µM single dose, 48 h
Description: as §1

NCI-H23 = assay: as above; conditions: 10 µM single dose, 48 h
Description: as §1

NCI-H226 = assay: as above; conditions: 10 µM single dose, 48 h
Description: as §1

NCI-H522 = assay: as above; conditions: 10 µM single dose, 48 h
Description: as §1

A549/ATCC = assay: as above; conditions: 10 µM single dose, 48 h
Description: as §1

HOP-62 = assay: as above; conditions: 10 µM single dose, 48 h
Description: as §1

PC-3 = assay: NCI-60 one-dose screen (prostate cancer); conditions: 10 µM single dose, 48 h
Description: as §1

DU-145 = assay: NCI-60 one-dose screen (prostate cancer); conditions: 10 µM single dose, 48 h
Description: as §1

ACHN = assay: NCI-60 one-dose screen (renal cancer); conditions: 10 µM single dose, 48 h
Description: as §1

786-0 = assay: NCI-60 one-dose screen (renal cancer); conditions: 10 µM single dose, 48 h
Description: as §1

A498 = assay: NCI-60 one-dose screen (renal cancer); conditions: 10 µM single dose, 48 h
Description: as §1

SN12C = assay: NCI-60 one-dose screen (renal cancer); conditions: 10 µM single dose, 48 h
Description: as §1

TK-10 = assay: NCI-60 one-dose screen (renal cancer); conditions: 10 µM single dose, 48 h
Description: as §1

UO-31 = assay: NCI-60 one-dose screen (renal cancer); conditions: 10 µM single dose, 48 h
Description: as §1

BT-549 = assay: NCI-60 one-dose screen (breast cancer); conditions: 10 µM single dose, 48 h
Description: as §1

T-47D = assay: NCI-60 one-dose screen (breast cancer); conditions: 10 µM single dose
Description: as §1

MDA-MB-468 = assay: NCI-60 one-dose screen (breast cancer); conditions: 10 µM single dose, 48 h
Description: as §1

MCF7 = assay: NCI-60 one-dose screen (breast cancer); conditions: 10 µM single dose, 48 h
Description: as §1

MDA-MB-231/ATCC = assay: NCI-60 one-dose screen (breast cancer); conditions: 10 µM single dose, 48 h
Description: as §1

HS 578T = assay: NCI-60 one-dose screen (breast cancer); conditions: 10 µM single dose, 48 h
Description: as §1

MOLT-4 = assay: NCI-60 one-dose screen (leukemia); conditions: 10 µM single dose, 48 h
Description: as §1

RPMI-8226 = assay: NCI-60 one-dose screen (leukemia); conditions: 10 µM single dose, 48 h
Description: as §1

K-562 = assay: NCI-60 one-dose screen (leukemia)
Description: as §1

CCRF-CEM = assay: NCI-60 one-dose screen (leukemia); conditions: 10 µM single dose
Description: as §1

HL-60(TB) = assay: NCI-60 one-dose screen (leukemia); conditions: 10 µM single dose
Description: as §1

SR = assay: NCI-60 one-dose screen (leukemia); conditions: 10 µM single dose
Description: as §1

Q: For `COc1ccc(NC2=C(Cl)C(=O)c3nc(C)ccc3C2=O)cc1OC` [AQQ4], which “GP (growth percentage)” value (SF-295) is on record?
A: 103.62%

Q: And the “GP (growth percentage)” value (SF-539)?
A: 103.46%

Q: And the “GP (growth percentage)” value (U251)?
A: 105.80%

Q: What about the “GP (growth percentage)” value (SNB-19) of the same molecule?
A: 94.62%

Q: What about the “GP (growth percentage)” value (SF-268) of the same molecule?
A: 84.69%

Q: And the “GP (growth percentage)” value (SNB-75)?
A: 110.92%

Q: What about the “GP (growth percentage)” value (HT29) of the same molecule?
A: 109.56%

Q: And the “GP (growth percentage)” value (SW-620)?
A: 72.23%

Q: And the “GP (growth percentage)” value (KM12)?
A: 98.23%

Q: And the “GP (growth percentage)” value (HCT-15)?
A: 82.29%

Q: And the “GP (growth percentage)” value (HCT-116)?
A: 55.84%

Q: And the “GP (growth percentage)” value (HCC-2998)?
A: 103.69%

Q: What about the “GP (growth percentage)” value (COLO 205) of the same molecule?
A: 107.70%

Q: And the “GP (growth percentage)” value (OVCAR-4)?
A: 71.38%

Q: What about the “GP (growth percentage)” value (OVCAR-3; 48 h) of the same molecule?
A: 13.16%

Q: And the inhibition at 10 µM (OVCAR-3; Homo sapiens)?
A: 86.8%

Q: What about the “GP (growth percentage)” value (SK-OV-3) of the same molecule?
A: 91.82%

Q: What about the “GP (growth percentage)” value (IGROV1; 10 µM single dose, 48 h) of the same molecule?
A: 19.63%

Q: What about the inhibition at 10 µM (IGROV1; Homo sapiens, IGROV-1, 10 µM single dose) of the same molecule?
A: 80.4%

Q: And the “GP (growth percentage)” value (NCI/ADR-RES)?
A: 94.66%

Q: What about the “GP (growth percentage)” value (OVCAR-8) of the same molecule?
A: 92.63%

Q: What about the “GP (growth percentage)” value (OVCAR-5) of the same molecule?
A: 104.66%

Q: What about the “GP (growth percentage)” value (UACC-62) of the same molecule?
A: 71.83%

Q: And the “GP (growth percentage)” value (MDA-MB-435)?
A: −67.16%

Q: And the “GP (growth percentage)” value (LOX IMVI)?
A: −3.09%

Q: And the “GP (growth percentage)” value (UACC-257)?
A: 91.03%

Q: And the “GP (growth percentage)” value (SK-MEL-28)?
A: 101.65%

Q: And the “GP (growth percentage)” value (MALME-3M)?
A: 94.54%

Q: What about the “GP (growth percentage)” value (SK-MEL-5) of the same molecule?
A: 86.57%

Q: What about the “GP (growth percentage)” value (SK-MEL-2) of the same molecule?
A: 100.13%

Q: And the “GP (growth percentage)” value (EKVX)?
A: 50.81%

Q: What about the “GP (growth percentage)” value (NCI-H460) of the same molecule?
A: 100.46%

Q: And the “GP (growth percentage)” value (HOP-92)?
A: 112.07%

Q: And the “GP (growth percentage)” value (NCI-H322M)?
A: 99.05%

Q: What about the “GP (growth percentage)” value (NCI-H23) of the same molecule?
A: 59.03%

Q: What about the “GP (growth percentage)” value (NCI-H226) of the same molecule?
A: 97.11%

Q: And the “GP (growth percentage)” value (NCI-H522)?
A: 78.84%

Q: What about the “GP (growth percentage)” value (A549/ATCC) of the same molecule?
A: 107.06%

Q: And the “GP (growth percentage)” value (HOP-62)?
A: 110.03%

Q: And the “GP (growth percentage)” value (PC-3)?
A: 70.56%

Q: What about the “GP (growth percentage)” value (DU-145) of the same molecule?
A: 93.00%

Q: What about the “GP (growth percentage)” value (ACHN) of the same molecule?
A: 95.00%

Q: And the “GP (growth percentage)” value (786-0)?
A: 98.99%

Q: What about the “GP (growth percentage)” value (A498) of the same molecule?
A: 82.55%

Q: And the “GP (growth percentage)” value (SN12C)?
A: 90.46%

Q: What about the “GP (growth percentage)” value (TK-10) of the same molecule?
A: 148.82%

Q: What about the “GP (growth percentage)” value (UO-31) of the same molecule?
A: 100.30%

Q: What about the “GP (growth percentage)” value (BT-549) of the same molecule?
A: 126.22%

Q: What about the “GP (growth percentage)” value (T-47D; 48 h) of the same molecule?
A: 14.93%

Q: What about the inhibition at 10 µM (T-47D; Homo sapiens, T47D) of the same molecule?
A: 85.1%

Q: What about the “GP (growth percentage)” value (MDA-MB-468) of the same molecule?
A: 58.11%

Q: And the “GP (growth percentage)” value (MCF7)?
A: 59.00%

Q: What about the “GP (growth percentage)” value (MDA-MB-231/ATCC) of the same molecule?
A: 72.96%

Q: What about the “GP (growth percentage)” value (HS 578T) of the same molecule?
A: 118.57%

Q: And the “GP (growth percentage)” value (MOLT-4)?
A: 69.83%

Q: And the “GP (growth percentage)” value (RPMI-8226)?
A: 47.33%

Q: And the “GP (growth percentage)” value (K-562; 10 µM single dose, 48 h)?
A: 7.18%

Q: And the inhibition at 10 µM (K-562; Homo sapiens, K562, 10 µM single dose)?
A: 92.8%

Q: What about the “GP (growth percentage)” value (CCRF-CEM; 48 h) of the same molecule?
A: 15.29%

Q: And the inhibition at 10 µM (CCRF-CEM; Homo sapiens)?
A: 84.7%

Q: And the “GP (growth percentage)” value (HL-60(TB); 48 h)?
A: 9.95%

Q: What about the inhibition at 10 µM (HL-60(TB); Homo sapiens) of the same molecule?
A: 90%

Q: And the “GP (growth percentage)” value (SR; 48 h)?
A: 0.92%

Q: And the inhibition at 10 µM (SR; Homo sapiens)?
A: 99.1%
